Like-named read-outs stand apart in the source and are kept apart here.
Experiments:
[1] = test system: EGFR Del19/T790M/C797S (H1975-clone #28); test: EGFR degradation HTRF assay, H1975-clone #28 DTC cells; type: cell-based
Summary of the method: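 Read-out is an HTRF EGFR signal (337 nm excitation, 665/620 nm) from lysates of mutant-EGFR H1975 clones in which only the exogenous EGFR survives knockout. Treatment ran 16h at 37° C. from 10 uM final downward in 5-fold steps. DC50 comes from a logistic fit and Dmax is the maximal degradation.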

[2] = target: T1, EGFR L858R/T790M/C797S (BaF3-LTC cells) (Homo sapiens, UniProt P00533, C797S/L858R/T790M); test: EGFR degradation HTRF assay, BaF3-LTC cells; type: cell-based
T1 construct: expressed in transfected cells; host or cells: BaF3
T1 sequence (P00533 25-1210 T790M/C797S/L858R): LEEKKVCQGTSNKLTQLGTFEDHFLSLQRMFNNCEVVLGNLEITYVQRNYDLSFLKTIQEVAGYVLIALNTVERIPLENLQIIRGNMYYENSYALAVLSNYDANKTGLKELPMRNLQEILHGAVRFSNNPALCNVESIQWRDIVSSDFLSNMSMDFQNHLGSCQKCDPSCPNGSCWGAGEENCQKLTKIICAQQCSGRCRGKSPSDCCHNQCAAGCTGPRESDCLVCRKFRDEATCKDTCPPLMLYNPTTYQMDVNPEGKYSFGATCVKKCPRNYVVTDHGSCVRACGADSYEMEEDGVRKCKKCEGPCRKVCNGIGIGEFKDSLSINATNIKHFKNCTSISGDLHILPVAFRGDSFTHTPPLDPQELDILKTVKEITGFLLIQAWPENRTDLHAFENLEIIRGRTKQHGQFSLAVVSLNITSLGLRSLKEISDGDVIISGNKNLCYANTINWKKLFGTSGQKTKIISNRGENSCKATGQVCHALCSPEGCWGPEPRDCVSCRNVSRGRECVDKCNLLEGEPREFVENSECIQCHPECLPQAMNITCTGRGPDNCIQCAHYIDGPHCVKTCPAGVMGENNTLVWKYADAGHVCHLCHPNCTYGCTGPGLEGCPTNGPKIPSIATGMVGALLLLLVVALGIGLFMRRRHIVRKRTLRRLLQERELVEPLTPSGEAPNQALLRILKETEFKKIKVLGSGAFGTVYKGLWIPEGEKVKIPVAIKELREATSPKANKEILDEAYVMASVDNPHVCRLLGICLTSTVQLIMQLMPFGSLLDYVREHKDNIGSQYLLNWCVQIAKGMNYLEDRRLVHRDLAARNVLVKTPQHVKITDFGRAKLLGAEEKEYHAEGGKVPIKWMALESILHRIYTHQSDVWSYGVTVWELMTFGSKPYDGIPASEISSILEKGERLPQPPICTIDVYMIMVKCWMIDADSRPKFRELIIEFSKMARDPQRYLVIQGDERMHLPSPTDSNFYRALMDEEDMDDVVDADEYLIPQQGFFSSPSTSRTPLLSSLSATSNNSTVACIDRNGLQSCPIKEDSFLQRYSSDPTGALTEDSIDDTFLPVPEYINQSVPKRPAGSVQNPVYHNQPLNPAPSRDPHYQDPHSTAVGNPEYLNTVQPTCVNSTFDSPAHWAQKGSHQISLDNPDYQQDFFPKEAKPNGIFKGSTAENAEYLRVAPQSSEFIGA
Summary of the method: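 EGFR remaining after a 16 h, 37 °C exposure (8 doses, 5-fold steps from 10 uM final, 0.2% DMSO) was quantified by HTRF antibodies in cell lysate. Percent inhibition relative to DMSO control was fitted by four-parameter logistic to give DC50; Dmax denotes maximal degradation.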

[3] = H1975 # 28 DTC cells; EGFR degradation, IC50 (DC50) from curve fit; read-out: DC50(nM) H1975 # 28 DTC
[4] = H1975 # 28 DTC cells; maximum percentage of inhibition (degradation)
[5] = BaF3-LTC cells; EGFR degradation, IC50 (DC50) from curve fit; read-out: DC50(nM) BaF3-LTC
[6] = BaF3-LTC cells; maximum percentage of inhibition (degradation); read-out: Dmax (%) BaF3-LTC

Row | DC50 [1, 3] [nM] | DC50 [2, 5] [nM] | Dmax [2, 6] [%] | SMILES | Dmax (%) H1975 # 28 DTC [1, 4] [%] | DC50 ([1]; read-out: DC50(nM) H1975 # 28 DTC; H1975 # 28 DTC cells; EGFR degradation, IC50 (DC50) from curve fit) [nM] | DC50 ([2]; read-out: DC50(nM) BaF3-LTC; BaF3-LTC cells; EGFR degradation, IC50 (DC50) from curve fit) [nM] | Dmax ([2]; read-out: Dmax (%) BaF3-LTC, BaF3-LTC cells; maximum percentage of inhibition (degradation)) [%]
1 | 0.71 | 4.06 | 94.3 | CCOc1cc(N2CCC(N3CCN(C(=O)CN4CCN(c5cc(F)c([C@H]6CCC(=O)NC6=O)c(F)c5)CC4)CC3)CC2)c(CC)cc1Nc1ncc(Br)c(Nc2ccc3c(=O)n(CC)ncc3c2P(C)(C)=O)n1 [Example 639, (R)-3-(4-(4-(2-(4-(1-(4-((5-bromo-4-((5-(dimethylphosphoryl)-2-ethyl-1-oxo-1,2-dihydrophthalazin-6-yl)amino)pyrimidin-2-yl)amino)-5-ethoxy-2-ethylphenyl)piperidin-4-yl)piperazin-1-yl)-2-oxoethyl)piperazin-1-yl)-2,6-difluorophenyl)piperidine-2,6-dione] | 86.93 | – | – | –
2 | 1.04 | 9.33 | 86.8 | CCc1ccc2c(P(C)(C)=O)c(Nc3nc(Nc4cc(C5CC5)c(N5CCC(N6CCN(CCc7cccc8c7oc(=O)n8C7CCC(=O)NC7=O)CC6)CC5)cc4OC)ncc3Br)ccc2n1 (centres unmarked) [Example 631, 3-(7-(2-(4-(1-(4-((5-bromo-4-((5-(dimethylphosphoryl)-2-ethylquinolin-6-yl)amino)pyrimidin-2-yl)amino)-2-cyclopropyl-5-methoxyphenyl)piperidin-4-yl)piperazin-1-yl)ethyl)-2-oxobenzo[d]oxazol-3(2H)-yl)piperidine-2,6-dione] | 82.5 | – | – | –
3 | 0.455 | 5.75 | – | CCc1ncc2c(P(C)(C)=O)c(Nc3nc(Nc4cc(C)c(N5CCC(N6CCN(CCc7cc(F)c([C@H]8CCC(=O)NC8=O)c(F)c7)CC6)CC5)cc4OC)ncc3Br)ccc2n1 [Example 748, (R)-3-(4-(2-(4-(1-(4-((5-bromo-4-((5-(dimethylphosphoryl)-2-ethylquinazolin-6-yl)amino)pyrimidin-2-yl)amino)-5-methoxy-2-methylphenyl)piperidin-4-yl)piperazin-1-yl)ethyl)-2,6-difluorophenyl)piperidine-2,6-dione] | 91.78 | – | – | –
4 | 0.64 | 3.14 | 96.4 | CCOc1cc(N2CCC(N3CCN(CCc4ccc5c(c4)oc(=O)n5C4CCC(=O)NC4=O)CC3)CC2)c(CC)cc1Nc1ncc(Br)c(Nc2ccc3nc(C)ccc3c2P(C)(C)=O)n1 (centres unmarked) [Example 676, 3-(6-(2-(4-(1-(4-((5-bromo-4-((5-(dimethylphosphoryl)-2-methylquinolin-6-yl)amino)pyrimidin-2-yl)amino)-5-ethoxy-2-ethylphenyl)piperidin-4-yl)piperazin-1-yl)ethyl)-2-oxobenzo[d]oxazol-3(2H)-yl)piperidine-2,6-diQne] | 88.89 | – | – | –
5 | 0.707 | 8.12 | 85.9 | CCc1ccc2c(P(C)(C)=O)c(Nc3nc(Nc4cc(C5CC5)c(N5CCC(N6CCN(CCc7cc(F)c([C@H]8CCC(=O)NC8=O)c(F)c7)CC6)CC5)cc4OC)ncc3Br)ccc2n1 [Example 550, (R)-3-(4-(2-(4-(1-(4-((5-bromo-4-((5-(dimethylphosphoryl)-2-ethylquinolin-6-yl)amino)pyrimidin-2-yl)amino)-2-cyclopropyl-5-methoxyphenyl)piperidin-4-yl)piperazin-1-yl)ethyl)-2,6-difluorophenyl)piperidine-2,6-dione] | 87.71 | – | – | –
6 | 1.81 | 3.98 | 95.8 | CCc1ccc2c(P(C)(C)=O)c(Nc3nc(Nc4cc(CC)c(N5CCC(N6CCN(C(=O)C78CCC(Nc9cc(F)c([C@H]%10CCC(=O)NC%10=O)c(F)c9)(CC7)C8)CC6)CC5)cc4OC)ncc3Br)ccc2n1 [Example 663, (R)-3-(4-((4-(4-(1-(4-((5-bromo-4-((5-(dimethylphosphoryl)-2-ethylquinolin-6-yl)amino)pyrimidin-2-yl)amino)-2-ethyl-5-methoxyphenyl)piperidin-4-yl)piperazine-1-carbonyl)bicyclo[2.2.1]heptan-1-yl)amino)-2,6-difluorophenyl)piperidine-2,6-dione] | 74.11 | – | – | –
7 | 0.913 | 3.66 | 93 | Cc1ccc2c(P(C)(C)=O)c(Nc3nc(Nc4cc(C)c(N5CCC(N6CCN(CCc7cccc8c7n(C)c(=O)n8C7CCC(=O)NC7=O)CC6)CC5)cc4OC4CC4)ncc3Br)ccc2n1 (centres unmarked) [Example 602, 3-(4-(2-(4-(1-(4-((5-bromo-4-((5-(dimethylphosphoryl)-2-methylquinolin-6-yl)amino)pyrimidin-2-yl)amino)-5-cyclopropoxy-2-methylphenyl)piperidin-4-yl)piperazin-1-yl)ethyl)-3-methyl-2-oxo-2,3-dihydro-1H-benzo[d]imidazol-1-yl)piperidine-2,6-dione] | 77.98 | – | – | –
8 | 2.03 | 15.1 | 90.8 | CCOc1cc(N2CCC(N3CCN(C(=O)C4CN(c5cc(F)cc6c5n(C)c(=O)n6C5CCC(=O)NC5=O)C4)CC3)CC2)c(CC)cc1Nc1ncc(Br)c(Nc2ccc3nc(CC)ccc3c2P(C)(C)=O)n1 (centres unmarked) [Example 466, 3-(4-(3-(4-(1-(4-((5-bromo-4-((5-(dimethylphosphoryl)-2-ethylquinolin-6-yl)amino)pyrimidin-2-yl)amino)-5-ethoxy-2-ethylphenyl)piperidin-4-yl)piperazine-1-carbonyl)azetidin-1-yl)-6-fluoro-3-methyl-2-oxo-2,3-dihydro-1H-benzo[d]imidazol-1-yl)piperidine-2,6-dione] | 72.67 | – | – | –
9 | 0.614 | 2.89 | – | CCc1cc(Nc2ncc(Br)c(Nc3ccc4nc(C)ncc4c3P(C)(C)=O)n2)c(OC)cc1N1CCC(N2CCN(CCc3cc(F)c([C@H]4CCC(=O)NC4=O)c(F)c3)CC2)CC1 [Example 739, (R)-3-(4-(2-(4-(1-(4-((5-bromo-4-((5-(dimethylphosphoryl)-2-methylquinazolin-6-yl)amino)pyrimidin-2-yl)amino)-2-ethyl-5-methoxyphenyl)piperidin-4-yl)piperazin-1-yl)ethyl)-2,6-difluorophenyl)piperidine-2,6-dione] | 85.55 | – | – | –
10 | 0.711 | 5.43 | 91 | CCOc1cc(N2CCC(N3CCN(CCc4cc5oc(=O)n(C6CCC(=O)NC6=O)c5cc4Cl)CC3)CC2)c(CC)cc1Nc1ncc(Br)c(Nc2ccc3c(=O)n(CC)ncc3c2P(C)(C)=O)n1 (centres unmarked) [Example 626, 3-(6-(2-(4-(1-(4-((5-bromo-4-((5-(dimethylphosphoryl)-2-ethyl-1-oxo-1,2-dihydrophthalazin-6-yl)amino)pyrimidin-2-yl)amino)-5-ethoxy-2-ethylphenyl)piperidin-4-yl)piperazin-1-yl)ethyl)-5-chloro-2-oxobenzo[d]oxazol-3(2H)-yl)piperidine-2,6-dione] | 76.73 | – | – | –
11 | 0.737 | 5.12 | 91.7 | CCc1cc(Nc2ncc(Br)c(Nc3ccc4nc(NC5CC5)ccc4c3P(C)(C)=O)n2)c(OC)cc1N1CCC(N2CCN(CCc3ccc4c(c3)oc(=O)n4C3CCC(=O)NC3=O)CC2)CC1 (centres unmarked) [Example 633, 3-(6-(2-(4-(1-(4-((5-bromo-4-((2-(cyclopropylamino)-5-(dimethylphosphoryl)quinolin-6-yl)amino)pyrimidin-2-yl)amino)-2-ethyl-5-methoxyphenyl)piperidin-4-yl)piperazin-1-yl)ethyl)-2-oxobenzo[d]oxazol-3(2H)-yl)piperidine-2,6-dione] | 70.09 | – | – | –
12 | – | – | – | CCOc1cc(N2CCC(N3CCN(C(=O)[C@H]4CN(c5cc(F)cc6c5oc(=O)n6C5CCC(=O)NC5=O)CC4(C)C)CC3)CC2)c(CC)cc1Nc1ncc(Br)c(Nc2ccc3nc(CC)ccc3c2P(C)(C)=O)n1 (stereo partly drawn) [Example 480, 3-(7-((R)-4-(4-(1-(4-((5-bromo-4-((5-(dimethylphosphoryl)-2-ethylquinolin-6-yl)amino)pyrimidin-2-yl)amino)-5-ethoxy-2-ethylphenyl)piperidin-4-yl)piperazine-1-carbonyl)-3,3-dimethylpyrrolidin-1-yl)-5-fluoro-2-oxobenzo[d]oxazol-3(2H)-yl)piperidine-2,6-dione] | 69.54 | 7.82 | 18.9 | 89.4
13 | 2.36 | 6.46 | 92 | CCc1cc(Nc2ncc(Br)c(Nc3cc(F)c4nc(C)ccc4c3P(C)(C)=O)n2)c(OC)cc1N1CCC(N2CCN(C(=O)C3CCN(c4cc(F)c(C5CCC(=O)NC5=O)c(F)c4)CC3)CC2)CC1 (centres unmarked) [Example 512, 3-(4-(4-(4-(1-(4-((5-bromo-4-((5-(dimethylphosphoryl)-8-fluoro-2-methylquinolin-6-yl)amino)pyrimidin-2-yl)amino)-2-ethyl-5-methoxyphenyl)piperidin-4-yl)piperazine-1-carbonyl)piperidin-1-yl)-2,6-difluorophenyl)piperidine-2,6-dione] | 60.54 | – | – | –

Source: patent US20230265116A1, “DEGRADATION OF (EGFR) BY CONJUGATION OF EGFR INHIBITORS WITH E3 LIGASE LIGAND AND METHODS OF USE” (BEIGENE, LTD., priority 2020, published 2023)
